For the series, the system named is rodent carcinogenicity bioassays, tumor incidence. Put plainly: CCRIS carcinogenicity studies. A digest of the protocol: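 NCI-built, expert-reviewed records of carcinogenicity and related test outcomes (mutagenicity, tumor promotion/inhibition) compiled from published and report sources, historical span 1985-2011, not updated.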

Active and inactive are the calls of the source. No rule for the calls is given here.

In the case of `C[C@]12CC[C@@H]3c4ccc(OC(=O)Cc5ccc(N(CCCl)CCCl)cc5)cc4CC[C@H]3[C@@H]1CC[C@@H]2OC(=O)Cc1ccc(N(CCCl)CCCl)cc1`, the carcinogen call was “active; positive” (Species: MOUSE, Strain/Sex: B6C3F1/FEMALE, Route: GAVAGE, Dose: 0, 15, 30 MG/KG 3/WK FOR 52 WKS, Dose: 0, 15, 30 MG/KG 3/WK FOR 52 WKS, Tumor Site: Type of Lesion: LUNG: ALVEOLAR/BRONCHIOLAR ADENOMA OR CARCINOMA, LYMPHATIC SYSTEM: LYMPHOMA, MYOCARDIUM: SARCOMA, STOMACH, Tumor Site: Type of Lesion: LUNG: ALVEOLAR/BRONCHIOLAR ADENOMA OR CARCINOMA, LYMPHATIC SYSTEM: LYMPHOMA, MYOCARDIUM: SARCOMA, STOMACH); “active; positive” (Species: MOUSE, Strain/Sex: B6C3F1/MALE, Route: GAVAGE, Dose: 0, 15, 30 MG/KG 3/WK FOR 52 WKS, Dose: 0, 15, 30 MG/KG 3/WK FOR 52 WKS, Tumor Site: Type of Lesion: LUNG: ALVEOLAR/BRONCHIOLAR ADENOMA OR CARCINOMA, HEMATOPOIETIC SYSTEM (LEUKEMIA): LYMPHOCYTIC LEUKEMIA, LYMPHATIC SYSTEM, Tumor Site: Type of Lesion: LUNG: ALVEOLAR/BRONCHIOLAR ADENOMA OR CARCINOMA, HEMATOPOIETIC SYSTEM (LEUKEMIA): LYMPHOCYTIC LEUKEMIA, LYMPHATIC SYSTEM); “inactive; negative” (Species: RAT, Strain/Sex: SPRAGUE-DAWLEY/FEMALE, Route: GAVAGE, Dose: 0, 0.62, 1.25 MG/KG IN 0.05% POLYSORB 80 IN PHOS BUFF SALINE 3/WK FOR 52 WK, Dose: 0, 0.62, 1.25 MG/KG IN 0.05% POLYSORB 80 IN PHOS BUFF SALINE 3/WK FOR 52 WK); “inactive; negative” (Species: RAT, Strain/Sex: SPRAGUE-DAWLEY/MALE, Route: GAVAGE, Dose: 0, 0.62, 1.25 MG/KG IN 0.05% POLYSORB 80 IN PHOS BUFF SALINE 3/WK FOR 52 WK, Dose: 0, 0.62, 1.25 MG/KG IN 0.05% POLYSORB 80 IN PHOS BUFF SALINE 3/WK FOR 52 WK).
Turning to `CCNC(=O)N(CC)N=O`, the carcinogen call reads like this: (Species: RAT, Strain/Sex: F344/FEMALE, Route: GAVAGE, Dose: 0, 20, 40 UMOL/WK IN CORN OIL/ETHYL ACETATE (2: 1) FOR 30 WK (LOW DOSE) OR 22.5 WK (HIGH DOSE) FOR TOTAL DOSES OF 0, 0.6, Dose: 0, 20, 40 UMOL/WK IN CORN OIL/ETHYL ACETATE (2: 1) FOR 30 WK (LOW DOSE) OR 22.5 WK (HIGH DOSE) FOR TOTAL DOSES OF 0, 0.6, Tumor Site: Type of Lesion: MAMMARY GLAND: TUMOR) “active; positive”; (Species: RAT, Strain/Sex: F344/FEMALE, Route: INTRAVESICULAR, Dose: 0, 3 MG 2/WK FOR 30 WK (STUDY DURATION: LIFETIME), Tumor Site: Type of Lesion: MAMMARY GLAND: TUMOR, LUNG: TUMOR, ZYMBAL GLAND: TUMOR, Tumor Site: Type of Lesion: MAMMARY GLAND: TUMOR, LUNG: TUMOR, ZYMBAL GLAND: TUMOR) “active; positive”; (Species: RAT, Strain/Sex: F344/FEMALE, Route: ORAL, Dose: 0, 20, 40 UMOL/WK IN DRINKING WATER FOR 30 WK FOR TOTAL DOSES OF 0, 0.6, 1.2 MMOL (STUDY DURATION: LIFETIME), Dose: 0, 20, 40 UMOL/WK IN DRINKING WATER FOR 30 WK FOR TOTAL DOSES OF 0, 0.6, 1.2 MMOL (STUDY DURATION: LIFETIME), Tumor Site: Type of Lesion: LUNG: TUMOR, MAMMARY GLAND: TUMOR, UTERUS: TUMOR, Tumor Site: Type of Lesion: LUNG: TUMOR, MAMMARY GLAND: TUMOR, UTERUS: TUMOR) “active; positive”; (Species: RAT, Strain/Sex: F344/MALE, Route: GAVAGE, Dose: 0, 20, 40 UMOL/WK IN CORN OIL/ETHYL ACETATE (2: 1) FOR 30 WK FOR TOTAL DOSES OF 0, 0.6, 1.2 MMOL (STUDY DURATION: LIFETI, Dose: 0, 20, 40 UMOL/WK IN CORN OIL/ETHYL ACETATE (2: 1) FOR 30 WK FOR TOTAL DOSES OF 0, 0.6, 1.2 MMOL (STUDY DURATION: LIFETI, Tumor Site: Type of Lesion: LUNG: TUMOR, TESTIS: MESOTHELIOMA, NERVOUS SYSTEM: TUMOR, ZYMBAL GLAND: TUMOR, COLON: TUMOR, Tumor Site: Type of Lesion: LUNG: TUMOR, TESTIS: MESOTHELIOMA, NERVOUS SYSTEM: TUMOR, ZYMBAL GLAND: TUMOR, COLON: TUMOR) “active; positive”; (Species: RAT, Strain/Sex: F344/MALE, Route: ORAL, Dose: 0, 20, 40 UMOL/WK IN DRINKING WATER FOR 30 WK FOR TOTAL DOSES OF 0, 0.6, 1.2 MMOL (STUDY DURATION: LIFETIME), Dose: 0, 20, 40 UMOL/WK IN DRINKING WATER FOR 30 WK FOR TOTAL DOSES OF 0, 0.6, 1.2 MMOL (STUDY DURATION: LIFETIME), Tumor Site: Type of Lesion: LUNG: TUMOR, TESTIS: MESOTHELIOMA, COLON: TUMOR, SKIN: TUMOR, Tumor Site: Type of Lesion: LUNG: TUMOR, TESTIS: MESOTHELIOMA, COLON: TUMOR, SKIN: TUMOR) “active; positive”.
Regarding `O=c1ccc2ccc3occc3c2o1`, under “Species: MOUSE, Strain/Sex: C3H/HEN/FEMALE, Route: DERMAL, Dose: 215 UG IN 70% ETHANOL 3/WK FOR 48 WK (STUDY DURATION: 68 WK)”, the carcinogen call is “inactive; negative”.
For `O/N=c1\ccn(O)c2ccccc12`, the carcinogen call was “active; positive” (Species: MOUSE, Strain/Sex: DDD/FEMALE, Route: SUBCUTANEOUS, Dose: 53 NMOL IN 0.1 ML OLIVE OIL WITHIN 24 HR AFTER BIRTH (STUDY DURATION: 400 D), Tumor Site: Type of Lesion: LUNG: ADENOMA, INJECTION SITE: SARCOMA, HEMATOPOIETIC SYSTEM: LEUKEMIA OR LYMPHOSARCOMA, Tumor Site: Type of Lesion: LUNG: ADENOMA, INJECTION SITE: SARCOMA, HEMATOPOIETIC SYSTEM: LEUKEMIA OR LYMPHOSARCOMA) and “active; positive” (Species: RAT, Strain/Sex: BUFFALO/FEMALE, Route: GAVAGE, Dose: 1 MG/0.1 ML OR 2 MG/0.2 ML IN 60% ETHANOL SOLUTION 1/3 WK (TOTAL DOSE: 30 MG) (STUDY DURATION: 610 D), Tumor Site: Type of Lesion: GLANDULAR STOMACH: MUCOSAL CARCINOMA, MAMMARY GLAND: TUMOR, THYMUS GLAND: THYMOMA, Tumor Site: Type of Lesion: GLANDULAR STOMACH: MUCOSAL CARCINOMA, MAMMARY GLAND: TUMOR, THYMUS GLAND: THYMOMA).
Consider `CC(C)CCC[C@@H](C)[C@H]1CC[C@H]2[C@@H]3C[C@@H]4O[C@@]45C[C@@H](O)CC[C@]5(C)[C@H]3CC[C@]12C`, for which the carcinogen call (Species: RAT, Strain/Sex: STRAIN-CD/FEMALE, Route: INJECTION, Dose: 0, 12.3 UMOL (TOTAL DOSE) 1/6 INJECTED UNDER EACH OF 3 THORACIC AND 3 INGUINAL NIPPLES ONCE (STUDY DURATION: 44 WK)) is “inactive; negative”.
`O[C@@H]1C=Cc2c(ccc3cc4ccc5ccccc5c4nc23)[C@H]1O`: the carcinogen call (Species: MOUSE, Strain/Sex: CD-1/FEMALE, Route: INTRAPERITONEAL, Dose: 0, 175 NMOL (TOTAL DOSE) ADMINISTERED AS 1/7 OF DOSE WITHIN 24 HR AFTER BIRTH, 2/7 OF DOSE AT 8 D OLD, 4/7 OF DOSE AT 15, Tumor Site: Type of Lesion: LUNG: TUMOR) was “active; positive” and the carcinogen call (Species: MOUSE, Strain/Sex: CD-1/MALE, Route: INTRAPERITONEAL, Dose: 0, 175 NMOL (TOTAL DOSE) ADMINISTERED AS 1/7 OF DOSE WITHIN 24 HR AFTER BIRTH, 2/7 OF DOSE AT 8 D OLD, 4/7 OF DOSE AT 15, Tumor Site: Type of Lesion: LIVER: TUMOR, LUNG: TUMOR) is “active; positive”.
In the case of `O=C1O[C@H]([C@@H](O)CO)C(O)=C1O`, the carcinogen call was “inactive; negative” (Species: MOUSE, Strain/Sex: B6C3F1/FEMALE, Route: ORAL, Dose: 0, 25000, 50000 PPM IN DIET FOR 103 WK, Dose: 0, 25000, 50000 PPM IN DIET FOR 103 WK); “inactive; negative” (Species: MOUSE, Strain/Sex: B6C3F1/MALE, Route: ORAL, Dose: 0, 25000, 50000 PPM IN DIET FOR 103 WK, Dose: 0, 25000, 50000 PPM IN DIET FOR 103 WK); “inactive; negative” (Species: RAT, Strain/Sex: F344/FEMALE, Route: ORAL, Dose: 0, 25000, 50000 PPM IN DIET FOR 103 WK, Dose: 0, 25000, 50000 PPM IN DIET FOR 103 WK); “inactive; negative” (Species: RAT, Strain/Sex: F344/MALE, Route: ORAL, Dose: 0, 1, 5, 7% IN DIET OF MALE RATS, PARENTAL GENERATION ALSO FED SODIUM ASCORBATE FOR 4 WK BEFORE MATING THEN CONTINUING I, Dose: 0, 1, 5, 7% IN DIET OF MALE RATS, PARENTAL GENERATION ALSO FED SODIUM ASCORBATE FOR 4 WK BEFORE MATING THEN CONTINUING I); “inactive; negative” (Species: RAT, Strain/Sex: F344/MALE, Route: ORAL, Dose: 0, 25000, 50000 PPM IN DIET FOR 103 WK, Dose: 0, 25000, 50000 PPM IN DIET FOR 103 WK); “inactive; negative (significant increase in hyperplasia observed in combined chemical grou” (Species: Rat, Strain/Sex: F344/Male (9-15/group), Route: Oral, Dose: 0, 1%, 1% with 0.2% sodium nitrite in diet for 32 wk, study duration 32 wk in surgically altered rats to produce chronic, Dose: 0, 1%, 1% with 0.2% sodium nitrite in diet for 32 wk, study duration 32 wk in surgically altered rats to produce chronic, Tumor Site: Type of Lesion: Esophagus examined). Moreover, the carcinogen call (Species: Rat, Strain/Sex: Non-tg/Male, Route: Oral, Dose: 5% sodium ascorbate in diet, continuous, for 57 wk until sacrifice, Tumor Site: Type of Lesion: Total tumor-bearing animals (20.0% in experimental animals vs 25.0% in controls), no bladder tumors) was “inactive; negative. parallel experiment in hras128 rat line was conducted to determine bla”.

These data come from PubChem BioAssay AID1259411 (Chemical Carcinogenesis Research Information System (CCRIS), 2018).
